In ChEMBL document CHEMBL3217543, “Synthesis and biological activity evaluation of N-protected isatin derivatives as inhibitors of ICAM-1 expression on human endothelial cells” (Medchemcomm, 2011):

Key:
HUVEC [1] = assay: Antiinflammatory activity in HUVEC assessed as inhibition of TNFalpha-induced ICAM1 expression at 100 uM pretreated for 2 hrs followed by TNFalpha challenge measured after 16 hrs by cell-ELISA; type: functional; conditions: Homo sapiens
HUVEC [2] = assay: Antiinflammatory activity in HUVEC assessed as inhibition of TNFalpha-induced ICAM1 expression pretreated for 2 hrs followed by TNFalpha challenge measured after 16 hrs by cell-ELISA; type: functional, cell-based; conditions: Homo sapiens
[3] = Cytotoxicity against HUVEC assessed as cell viability at 100 uM after 24 hrs by MTT assay; type: cell-based; conditions: human, HUVEC cells; read-out: Activity
HUVEC [4] = assay: Antiinflammatory activity in HUVEC assessed as inhibition of TNFalpha-induced ICAM1 expression at 100 uM pre-treated before TNFalpha addition by cell-ELISA; type: functional, cell-based; conditions: Homo sapiens, TDE = time-dependent effect
HUVEC [5] = assay: Antiinflammatory activity in HUVEC assessed as inhibition of TNFalpha-induced ICAM1 expression measured after 6 hrs by FACS flow cytometry; type: functional, cell-based; conditions: Homo sapiens
HUVEC [6] = assay: Antiinflammatory activity in HUVEC assessed as inhibition of TNFalpha-induced ICAM1 expression preincubated for 0.5 to 6 hrs followed by TNFalpha challenge measured after 4 hrs by immunostaining assay; type: functional, cell-based; conditions: Homo sapiens
HUVEC [7] = assay: Antiinflammatory activity in HUVEC assessed as inhibition of LPS-induced ICAM1 expression by cell-ELISA; type: functional, cell-based; conditions: Homo sapiens

SMILES	inhibition at 100 µM (HUVEC [1]) [%]	IC50 (HUVEC [2]) [µM]	viability at 24 h, 100 µM [3] [%]	inhibition (HUVEC [1])	inhibition (HUVEC [4])	IC50 (HUVEC [5]) [mM]	IC50 (HUVEC [6]) [mM]	IC50 (HUVEC [7]) [µM]
CCOC(=O)/C=C1/C(=O)Nc2ccc(Br)cc21	58	100	97					
CCOC(=O)/C=C1/C(=O)N(CC(=O)OCC)c2ccc(Br)cc21	93	10	97	Dose-dependent effect	tde			
CCOC(=O)/C=C1/C(=O)N(C(=O)OCC)c2ccc(Br)cc21	91	15	98					
CCOC(=O)/C=C1/C(=O)N(C(=O)OC)c2ccccc21	57	78	98					
CCOC(=O)/C=C1/C(=O)N(C(=O)OCC)c2ccc(F)cc21	72	53	96					
CCOC(=O)/C=C1/C(=O)N(C(=O)OC)c2ccc(F)cc21	61	70	97					
CC(=O)Oc1ccccc1C(=O)O [ASPIRIN]						5		
CCOC(=O)/C=C1/C(=O)N(CC(=O)OCC)c2ccccc21	74	55	98					
CCOC(=O)/C=C1/C(=O)N(C(=O)OCC)c2ccccc21	66	50	95					
CCOC(=O)/C=C1/C(=O)N(CC(=O)OCC)c2ccc(Cl)cc21	74	25	96					
CCOC(=O)/C=C1/C(=O)N(C(=O)OCC)c2ccc(Cl)cc21	83	30	97					
CC(=O)N[C@@H](CS)C(=O)O [ACETYLCYSTEINE]							10	
O=C(O)Cc1ccccc1Nc1c(Cl)cccc1Cl [DICLOFENAC]								750
CCOC(=O)/C=C1/C(=O)N(CC(=O)OC)c2ccc(F)cc21	52	75	96					
CCOC(=O)/C=C1/C(=O)Nc2ccc(F)cc21	31	> 100	95					
CCOC(=O)/C=C1/C(=O)Nc2ccc(Cl)cc21	56	100	96					
CCOC(=O)/C=C1/C(=O)Nc2ccccc21	40	> 100	96					
CCOC(=O)/C=C1/C(=O)N(C(=O)OC)c2ccc(Cl)cc21	77	40	96					
CCOC(=O)/C=C1/C(=O)N(CC(=O)OC)c2ccc(Br)cc21	81	25	99					
CCOC(=O)/C=C1/C(=O)N(C(=O)OC)c2ccc(Br)cc21	88	25	98					
CCOC(=O)/C=C1/C(=O)N(CC(=O)OC)c2ccccc21	58	70	97					
CCOC(=O)/C=C1/C(=O)N(CC(=O)OC)c2ccc(Cl)cc21	67	40	97					
CCOC(=O)/C=C1/C(=O)N(CC(=O)OCC)c2ccc(F)cc21	63	40	97					
